Source: paper PMC8049364, “Quantification of Macrophage-Driven Inflammation During Myocardial Infarction with ^18F-LW223, a Novel TSPO Radiotracer with Binding Independent of the rs6971 Human Polymorphism” (Journal of Nuclear Medicine, 2021)

How the values were obtained:
[1] = target: TSPO; assay: In vitro competition binding assay with ^3H-PK11195 in human heart homogenates (HAB, MAB, LAB); settings: for Effect of rs6971 genetic polymorphism on Ki: human heart; for LAB/HAB ratio: human heart homogenates, rs6971 genotyped
Experimental: (§1) All studies using human tissue were conducted in accordance with the National Health Service Research Ethics Committee South East Scotland (Edinburgh Brain and Tissue Bank, 16/ES/0084). Supplemental Table 1 contains the Brain Bank Network reference number for all tissues used from the Edinburgh Brain and Tissue Bank. […] Samples were homogenized in ×10 w/v buffer (50 mM Tris-Base, pH 7.4, 4°C) before centrifugation (32,000g, 10 min, 4°C). Tissue pellets were then resuspended in ×10 w/v buffer and centrifuged again before resuspending in 2 mL of buffer. Samples were assessed for protein concentration using the Bio-Rad protein assay, aliquoted, and stored at −80°C until use. The competition binding assay protocol was adjusted from a previously reported protocol ([16]), as detailed within the supplemental materials.
(§2) In Vitro Human Competition Binding Assays
(§3) Briefly, 250 µg protein/mL in 200 µl of buffer was added to 100 µl of 1 nM 3H- […]
(§4) Aldrich, USA), PBR28 (ABX, Germany), AB5186 or LW223 at 14 different concentrations (0.001-3000 nM) for 90 min at 4 °C. Binding was terminated with the addition of ice cold buffer before being immediately filtered over a Whatman GF/B filters (Whatman, UK) pre-treated with 0.3% polyethylenimine (Sigma-Aldrich, USA) using a Brandel harvester (Brandel, USA). Filter paper was then removed, placed into 2.5 mL of Optiphase HiSafe 3 (Perkin Elmer, USA) and counted 48 hours later on a Hidex 300 SL (Hidex, Finland).
(§5) All binding assays were performed
(§6) GraphPad Prism version 6 (GraphPad Software, USA) was used to fit all binding affinity curves. A comparison of a one-site and two-site models was made using the least squares algorithm and model selection was compared using an F test. The null hypothesis (one-site fitting as more suitable) was rejected if p<0.05. Normalized mean […]
(§7) saturation binding results, Sup.Fig.2) was used to determine the best fitting model and to calculate LAB:HAB ratios. Affinity values (Ki) were calculated by fitting individual tissue

[2] = target: T1, TSPO (Homo sapiens, UniProt P30536); assay: In vitro competition binding assay with ^3H-PK11195 in human brain homogenates (HAB, MAB, LAB); settings: for LAB/HAB ratio: human brain homogenates, rs6971 genotyped
T1 sequence (P30536 2-169): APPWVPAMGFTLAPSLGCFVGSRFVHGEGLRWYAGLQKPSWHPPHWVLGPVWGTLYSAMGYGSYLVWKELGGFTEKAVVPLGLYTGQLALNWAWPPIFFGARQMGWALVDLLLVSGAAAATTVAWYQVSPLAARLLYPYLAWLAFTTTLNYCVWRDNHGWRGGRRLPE
Experimental: as §1, §2, §3, §4, §5, §6, §7

[3] = target: T1, TSPO; assay: In vitro competition binding assay with ^3H-PK11195 in human heart homogenates (HAB, MAB, LAB); settings: human heart
Experimental: as §1, §2, §3, §4, §5, §6, §7

[4] = humans; cited from earlier work
[5] = test system: TSPO; settings: cited from earlier work
[6] = test system: TSPO; settings: humans; cited from earlier work
[7] = cited from earlier work

Structure (SMILES)	Effect of rs6971 genetic polymorphism on Ki [1]	LAB/HAB ratio [1]	LAB/HAB ratio [2]	VT in the brain [5]	further results
CCN(CC)C(=O)c1nc2ccccc2c(-c2ccccc2)c1CF [AB5186]	affected	7	9		Effect of rs6971 genetic polymorphism on Ki ([2]; human brain): affected
CC[C@@H](C)N(C)C(=O)c1nc2ccccc2c(-c2ccccc2)c1CF [LW223]	unaffected	1	1		Ki [3]: 1.7 nM; Effect of rs6971 genetic polymorphism on Ki ([2]; human brain): unaffected; Ki ([2]; human brain): 0.6 nM
COc1ccccc1CN(C(C)=O)c1cnccc1Oc1ccccc1 [PBR28, reference compound]	affected	48	48		
CC[C@@H](C)N([11CH3])C(=O)c1nc(-c2ccccc2Cl)c2ccccc2n1 [^11C-ER176]				1.6–3.5 mL/cm^3	parent free fraction in plasma [4]: 3.3%
CCC(C)N([11CH3])C(=O)c1cc2ccccc2c(-c2ccccc2Cl)n1 (centres unmarked) [^11C-PK11195]				0.6–0.74 mL/cm^3	parent free fraction in plasma [4]: 1%; SUVpeak, heart [6]: 5; SUVpeak, lung [6]: 3; parent in plasma ([7]; same lower species (rat)): ~40%
CN(C(=O)Cn1c(=O)oc2ccc(-c3ccc(OCC[18F])cc3)cc21)c1ccccc1 [^18F-FEBMP]					original parent compound found in blood ([7]; rats, 30 min after injection): less than 10%
CCN(CC)C(=O)[C@H]1CCCc2c1c1c(OC)cccc1n2CC[18F] [^18F-GE180, Flutriciclamide]				0.10–0.28 mL/cm^3	
CCN(CC)C(=O)Cc1c(-c2ccc(OCCC[18F])cc2)nc2ccc(Cl)cn12 [^18F-PBR111]				2.22–4.03 mL/cm^3	
